How the values were obtained:
Assay type in all cases: in vivo, human
[1] = test system: panic and anxiety disorders; test: case histories: panic and anxiety disorders
Method: We have now treated several patients who have panic and anxiety disorders with purified ethyl-EPA with excellent effect. Three case histories follow. A person was disabled as a result of frequent and uncontrollable panic attacks and palpitations. […] They were then given a dose of 2 g per day of ethyl EPA as four 500 mg capsules. […] A person had suffered from mild anxiety and panic attacks for most of their life but these had become much worse over the previous few years in association with various problems with their children. Anxiolytics and antidepressants had only modest effects and their palpitations were uncontrolled even by relatively high doses of beta-blockers. Again they were treated with ethyl-EPA over a period of four months. […] The third patient was a housewife who had been through two divorces and was now in a long-term relationship. They had several panic attacks every week, sometimes in the middle of the night, and always accompanied by strong palpitations which were very worrying for them. These panic attacks were accompanied by depression. They were very reluctant to go out for fear of having an attack and this seriously disrupted their life. Again, antidepressants, beta-blockers and anxiolytics had had only limited beneficial effects. […] Sometimes, they felt that an attack of palpitations might be coming on but it rarely materialised. As a result, they felt increasing confidence and was able to resume a much more normal life.

severe depression = test: case history: severe depression, ethyl-EPA added to citalopram; settings: 1 g/day in addition to citalopram, after four weeks
Excerpt: In addition to citalopram they were then given 1 g/day of ethyl-EPA. […] Another case was a young person who dropped out of college with a schizophrenic breakdown.

schizophrenia = test: case history: schizophrenia, ethyl-EPA added to haloperidol; settings: 4 g/day in addition to haloperidol, eight weeks
Excerpt: A person had become ill with schizophrenia. They had florid hallucinations and paranoia, but also withdrew themself from most of their friendships and lived alone. […] They lived alone, ceased to communicate with most of their friends, and went around to town alone and muttering to […]. Their psychiatrist heard about ethyl-EPA and decided to try it in addition to the standard drug. After eight weeks on treatment with 4 g/day their outlook was transformed. […] They were even persuaded to go on holiday with their family where they enjoyed themself and made new friends. The EPA therefore reversed the extreme withdrawal which appeared to have been exaggerated by haloperidol.

Huntington's disease = test: randomised double blind trial of 96% pure ethyl-EPA in Huntington's disease; settings: 2 g/day, 6 months
Method: Because early Huntington's disease may present with schizophrenia-like features, a randomised trial of 96% pure ethyl-EPA was set up in seven severely disabled patients in the final stages of Huntington's disease. All required 24 hour nursing care, had severe movement disorders, were irritable and were partially demented. They were randomised on a double blind basis to receive 2 g/day ethyl-EPA or 2 g/day placebo for 6 months. […] In four of the patients, two on ethyl-EPA and two on placebo, the brain degeneration was assessed at the beginning and end of the study by magnetic resonance imaging (MRI). MRI allows an accurate assessment of the size of the lateral ventricles, the fluid-filled spaces within the cerebral hemispheres. As Huntington's disease progresses, the lateral ventricles enlarge indicating loss of brain tissue. In the two patients on placebo over 6 months the ventricles enlarged as expected.

## CC/C=C\C/C=C\C/C=C\C/C=C\C/C=C\CCCC(=O)OCC [ethyl-EPA]
[1]; housewife, four months
  panic attacks and palpitations: dramatic reduction in their panic attacks and palpitations
[1]; person, 2 g per day, three months
  panic attacks and palpitations: almost absent
[1]; person, four months
  anxiety and panic attacks: much less severe
Severe depression
  effect on mood: lightening of mood
schizophrenia
  residual hallucinations: residual hallucinations disappeared
Huntington's disease; three patients
  clinical course of Huntington's disease: improved
Huntington's disease; two patients
  lateral ventricle size by MRI: reduction in lateral ventricle size

— patent US6384077B1, “Highly purified EPA for treatment of schizophrenia and related disorders” (Laxdale Limited, priority 1999, dated 2002)
